This note sets out measurements from patent publication EP0104611A2, “Thiatriazine derivatives” (HOECHST UK LIMITED, priority 1982, dated 1984).

For this experiment, the system named is perfused rat stomach. The experiment in a line: antisecretory activity in the perfused rat stomach (inhibition of histamine- or pentagastrin-stimulated acid secretion). Type of experiment: in vivo. The settings on record: iv, amount required to inhibit the histamine- or pentagastrin-stimulated secretion by 50 %, two to four rats per determination, read-out: ID50 (μmoles/kg) Rat perfused stomach i.v. As to the method: Compounds of this invention were tested for […]- tory activity in the perfused rat stomach. The method of Gosh and Schild, Brit. […] After the secretion plateau was reached, the test compound was administered i.v. and the amount of comound required to inhibit the stimulated secretion by 50 % was determined. Two to four rats were used for each determination. [drawing 17]
As for `CN/C(=N/CCSCc1nc[nH]c1C)NC#N` [Cimetidine, reference compound], the ED50 was 10.8 µmol/kg.
On to `C#CCNC1=NS(=O)(=O)N=C(NCCSCc2csc(N=C(N)N)n2)N1C` [-NHCH2C≡CH], for which the ED50 amounted to 0.12 µmol/kg.
As for `CN1C(N)=NS(=O)(=O)N=C1NCCSCc1csc(N=C(N)N)n1` [-NH2, 3-N-[2-[(2-Guanidino-4-thiazolyl)methylthio]-ethyl]-amino-4-methyl-5-amino-1,2,4,6-thiatriazine-1,1-dioxide], the ED50 worked out at 0.15 µmol/kg.
`CC(C)NC1=NS(=O)(=O)N=C(NCCSCc2csc(N=C(N)N)n2)N1C` [-NH-CH(CH3)2]: the ED50 is 0.28 µmol/kg.
Consider `CN1C(NC#N)=NS(=O)(=O)N=C1NCCSCc1csc(N=C(N)N)n1` [-NHCN], for which the ED50 amounted to 0.34 µmol/kg.
Consider `CN(C)C1=NS(=O)(=O)N=C(NCCSCc2csc(N=C(N)N)n2)N1C` [-N(CH3)2], for which the ED50 was found to be 0.095 µmol/kg.
